Measured values reported in patent US12606564B2, “Adenosine receptor antagonist compounds” (ILDONG PHARMACEUTICAL CO., LTD., priority 2019, dated 2026).

Assays:
[1] = target: T1, Human recombinant adenosine A1 receptors (Homo sapiens, UniProt P30542); test: Human adenosine A1 receptor binding assay with [3H] DPCPX (pyrazolo-pyrimidine compounds, Example 4.1); settings: membranes of CHO-K1 cells, read-out: hA1 Ki
T1 construct: expressed in transfected cells; host or cells: CHO-K1, membrane preparation
T1 sequence (P30542 1-326): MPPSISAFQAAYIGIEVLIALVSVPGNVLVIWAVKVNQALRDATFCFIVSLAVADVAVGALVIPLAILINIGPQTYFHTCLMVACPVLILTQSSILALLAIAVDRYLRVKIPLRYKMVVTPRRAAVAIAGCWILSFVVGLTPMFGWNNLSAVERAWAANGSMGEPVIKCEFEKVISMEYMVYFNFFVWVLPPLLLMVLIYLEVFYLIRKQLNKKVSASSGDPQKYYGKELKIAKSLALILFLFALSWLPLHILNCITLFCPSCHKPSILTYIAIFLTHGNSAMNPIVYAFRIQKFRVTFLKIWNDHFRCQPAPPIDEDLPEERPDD
Description: Test compound is weighed, dissolved in DMSO to make a stock solution of 10 mM, diluted with DMSO to prepare working solutions, then 100-fold diluted to the indicated concentrations. Human recombinant adenosine A1 receptors expressed in CHO-K1 cells were used to prepare membranes in incubation buffer (20 mM HEPES (4-(2-hydroxyethyl)-1-piperazineethanesulfonic acid) pH 7.4, 10 mM MgCl2, 100 mM NaCl). Test compound or vehicle (2.2 μL) was added in 200 μL of membranes and incubated with 20 μL of 1 nM [^3H] DPCPX (8-cyclopentyl-1,3-dipropylxanthine) for 90 minutes at 25° C. Non-specific binding was estimated in the presence of 100 μM R(−)-PIA ((R)—N-(1-methyl-2-phenylethyl)adenosine). The incubation was stopped by vacuum filtration onto 0.3% PEI (polyethylenimine) presoaked GF/B filters using a harvester followed by four washes with ice-cold 50 mM Tris-HCl, pH 7.4, and the radioactivity on GF/B filtermats counted in a scintillation counter (PerkinElmer Topcount™) to determine [^3H] DPCPX specifically bound. Final concentration of vehicle DMSO is 1%.
Data is fitted using the non-linear curve fitting routines in Meth-IQ software (ID Business Solutions Ltd., UK).

[2] = target: Human recombinant adenosine A2A receptor (Homo sapiens, UniProt P29274); test: Human adenosine A2A receptor binding assay with [3H] CGS-21680 (Example 4.2); settings: for activity as dual antagonists of both A2A and A1 receptors (in words): summary of Table 5, binding assays of Examples 4.1 and 4.2
Human recombinant adenosine A2A receptor, sequence (P29274 whole entry): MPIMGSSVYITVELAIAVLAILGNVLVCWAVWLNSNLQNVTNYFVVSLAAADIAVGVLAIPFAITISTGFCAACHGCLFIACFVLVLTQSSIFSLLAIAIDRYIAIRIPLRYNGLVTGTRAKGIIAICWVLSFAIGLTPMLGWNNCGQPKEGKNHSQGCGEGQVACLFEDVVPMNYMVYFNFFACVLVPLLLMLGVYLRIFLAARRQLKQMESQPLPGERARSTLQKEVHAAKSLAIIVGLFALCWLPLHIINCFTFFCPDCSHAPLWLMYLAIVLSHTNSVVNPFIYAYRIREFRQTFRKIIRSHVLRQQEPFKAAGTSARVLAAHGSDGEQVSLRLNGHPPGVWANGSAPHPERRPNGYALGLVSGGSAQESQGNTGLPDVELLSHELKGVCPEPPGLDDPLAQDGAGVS
Description: Test compound is weighed, dissolved in DMSO to make a stock solution of 10 mM, diluted with DMSO to prepare working solutions, then 100-fold diluted to the indicated concentrations. Human recombinant adenosine A2A receptors expressed in HEK-293 cells were used to prepare membranes in incubation buffer (50 mM Tris-HCl, pH 7.4, 10 mM MgCl2, 1 mM EDTA, 2 U/ml Adenosine Deaminase). Test compound or vehicle (2.2 μL) was added in 200 μL of membranes and incubated with 20 μL of 50 nM [^3H] […] Non-specific binding was estimated in the presence of 50 μM NECA (5′-N-ethylcarboxamidoadenosine). The incubation was stopped by vacuum filtration onto 0.3% PEI (polyethylenimine) presoaked GF/B filters using a harvester followed by four washes with ice-cold 50 mM Tris-HCl, pH 7.4, and the radioactivity on GF/B filtermats counted in a scintillation counter (PerkinElmer Topcount™) to determine [^3H] […] Final concentration of vehicle DMSO is 1%.

Row | SMILES | Ki [1] | Ki [2] | activity as dual antagonists of both A2A and A1 receptors (in words) [2]
1 | N#Cc1cccc(-c2nc(N)nc3c2cnn3Cc2c(F)cc(N)cc2F)c1F [Compound 208, 3-(6-amino-1-(4-amino-2,6-difluorobenzyl)-1H-pyrazolo[3,4-d]pyrimidin-4-yl)-2-fluorobenzonitrile] | ≤ 100 nM | < 20 nM | potent activity as dual antagonists
2 | N#Cc1cccc(-c2nc(N)nc3c2cnn3Cc2ccc(N)cc2F)c1F [Compound 203, 3-(6-amino-1-(4-amino-2-fluorobenzyl)-1H-pyrazolo[3,4-d]pyrimidin-4-yl)-2-fluorobenzonitrile] |  |  | potent activity as dual antagonists
3 | N#Cc1cccc(-c2nc(N)nc3c2cnn3Cc2ccc(N)c(C(F)(F)F)c2)c1F [Compound 211, 3-(6-amino-1-(4-amino-3-(trifluoromethyl)benzyl)-1H-pyrazolo[3,4-d]pyrimidin-4-yl)-2-fluorobenzonitrile] |  |  | potent activity as dual antagonists
